These results are taken from patent US20230181493A1, “BIOMARKERS RELATED TO PARKINSON'S DISEASE AND METHODS OF USING THE SAME” (SENDA BIOSCIENCES, INC., priority 2020, published 2023).

The conditions of series [1]: carbidopa administered with levodopa; cited from earlier work.
The subject of series [2] is microbial enzyme TDC in the rat microbiome. Nature of the series: In vivo metabolism of levodopa: levodopa in circulation after inhibition of microbial TDC. To be noted: oral gavage, whole blood, LC-MS/MS. The source says: The microbial enzyme TDC in the rat microbiome was inhibited with alpha-fluoromethyltyrosine (AFMT). On day 0, male Sprague Dawley rats were prophylactically treated with single oral gavage of vehicle, carbidopa, carbidopa+S-AFMT, or carbidopa+R-AFMT, respectively. On day 1, solutions of levodopa, carbidopa, S-AFMT in 1% methyl cellulose (w/v), and 1% ascorbic acid (w/w) in deionized (DI) water were applied by oral gavage to male Sprague Dawley rats.
Whole blood samples were drawn and levodopa concentrations were determined by LC-MS/MS at 0, 5, 10, 15, 30, 45, 90, and 180 min post-application (12 animals per time point).

Series [3] concerns the target T1, Tyrosine decarboxylase (tdc) (Enterococcus faecalis, UniProt P0DTQ4).
T1 construct: made in house
T1 sequence (P0DTQ4 1-620): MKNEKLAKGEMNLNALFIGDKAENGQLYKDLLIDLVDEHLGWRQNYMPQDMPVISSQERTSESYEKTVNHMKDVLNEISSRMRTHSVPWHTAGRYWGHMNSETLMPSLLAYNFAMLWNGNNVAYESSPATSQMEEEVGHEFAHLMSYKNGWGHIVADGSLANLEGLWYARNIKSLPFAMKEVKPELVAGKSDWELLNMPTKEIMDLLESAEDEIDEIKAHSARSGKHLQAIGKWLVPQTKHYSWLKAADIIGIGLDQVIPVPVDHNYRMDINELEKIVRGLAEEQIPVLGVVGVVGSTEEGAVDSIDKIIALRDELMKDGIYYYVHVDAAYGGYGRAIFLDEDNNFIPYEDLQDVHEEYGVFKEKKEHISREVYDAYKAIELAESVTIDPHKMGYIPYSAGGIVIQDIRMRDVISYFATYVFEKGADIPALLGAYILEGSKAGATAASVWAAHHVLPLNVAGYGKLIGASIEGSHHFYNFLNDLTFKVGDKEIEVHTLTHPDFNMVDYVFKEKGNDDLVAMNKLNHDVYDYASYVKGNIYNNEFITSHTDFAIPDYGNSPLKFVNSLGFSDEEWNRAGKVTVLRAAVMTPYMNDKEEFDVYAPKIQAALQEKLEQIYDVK
Nature of the series: Inhibition of tyrosine decarboxylase in vitro. The settings on record: 60 min preincubation of tdc with inhibitor at room temperature; dopamine formed from levodopa, LC-MS. Format: biochemical. How it is done:
Tyrosine decarboxylase (tdc) was obtained by following a previously published literature procedure (Rekdal et al., Science 2019; 364(6445):eaau6323). The tdc (220 nM final concentration) was thawed on ice and then mixed with pyridoxal-5-phosphate (2.2 mM final concentration) in 200 mM sodium acetate buffer, pH 5.5 optionally containing 1 mM TCEP. To this mixture was added inhibitor at a final concentration of 1000, 333, 111, 37, 12, 4.1, 1.4, or 0 μM (final volume: 100 μL; inhibitor was 100-fold concentrated in a solution of DMSO, H2O, or DMSO:H2O (1/1 v/v)). The protein-inhibitor mixture was incubated at room temperature for 60 min. 6 μL of this mixture was then withdrawn from each solution and mixed with 54 μL of 10 mM levodopa in 200 mM sodium acetate buffer pH 5.5. The final concentration of the reaction was 22 nM tdc, 220 μM pyridoxal-5-phosphate, 9 mM levodopa in 200 mM sodium acetate buffer pH 5.5 with 0-100 μM inhibitor. The reaction proceeded for 5 min at room temperature before being quenched by the addition of 540 μL acetonitrile containing 0.1% (v/v) formic acid supplemented with 200 nM tolbutamide as an internal standard. The reactions were centrifuged (3,000 g, 10 min), and then 100 μL of each supernatant was transferred to a fresh plate. 100 μL of acetonitrile containing 0.1% (v/v) formic acid supplemented with 200 nM tolbutamide was added. An external standard curve containing 0-150 μM dopamine was prepared in the exact same manner.
Dopamine formed in each reaction was quantified by using an Agilent 6470 triple quadrupole mass spectrometer equipped with an Acquity UPLC. Mobile phase A consisted of H2O containing 10 mM ammonium formate, pH 3.0 and supplemented with 0.1% (v/v) formic acid. Mobile phase B consisted of acetonitrile containing 10 mM ammonium formate, pH 3.0 and supplemented with 0.1% (v/v) formic acid. 5 μL of each sample was injected onto a BEH Amide column (Waters Corporation, 2.1×50 mm, 1.7 μm). The gradient was set to: 100% mobile phase B at 0 min, decreasing linearly to 65% mobile phase B by 1.5 min, held constant at 65% mobile phase B until 2.5 min, ramped back up to 100% mobile phase B by 2.6 min, and held constant at 100% mobile phase B until 4.2 min. The flow rate was 0.6 mL/min. The dopamine was detected by using the mass spectrometer in multiple reaction monitoring (MRM) mode, quantifying the transition 154.1 to 137.0 m/z in positive mode. The fragmentor setting was 74, the collision energy was 9, and the cell accelerator voltage was 4, and the dwell time was 20. Tolbutamide was monitored using MRM and quantifying the transition of 271.1 to 91.0 m/z in positive mode. The fragmentor setting was 88, the collision energy was 37, and the cell accelerator voltage was 4, and the dwell time was 20.
The amount of dopamine was quantified by normalizing the area to the area of tolbutamide internal standard within each sample. This relative response was then compared to that of the standard curve to obtain the dopamine formed within each sample. The concentration of dopamine formed as a function of the inhibitor concentration at the preincubation stage was plotted in GraphPad Prism 8, and the IC50 was calculated using the non-linear fit for the standard IC50 curve equation “[inhibitor] vs response (three parameters).”

Series [4] relates to E. faecalis v583. As to the kind of experiment: Inhibition of Enterococcus faecalis decarboxylation activity in vitro. Format: cell-based. To be noted: levodopa remaining in E. faecalis v583 culture, BHI broth pH 5, 1.5 mM levodopa, 24 h at 37° C., anaerobic, read-out: IC50 @ 60 min. As for the experimental part: A vial of 200 μL of E. faecalis v583 was removed from a −80° C. freezer and thawed in an anaerobic chamber containing an atmosphere of either 95/5 N2/H2 (v/v) or 90/5/5 N2/H2/CO2 (v/v). 200 μL was inoculated into 10 mL of sterile, anaerobic BHI broth, pH 5 (adjusted with NaOH). The culture was grown overnight at 37° C. under anaerobic conditions.
After overnight incubation, 40 μL of the saturated starter culture was mixed with 744 μL of sterile, anaerobic BHI broth, pH 5 that had been supplemented with 1.5 mM levodopa. To this was added 16 μL of a 50-fold concentrated stock solution of inhibitor that had been dissolved in either DMSO, H2O, or DMSO:H2O (1:1 v/v). The final concentration of the inhibitor in each condition was 0, 0.001, 0.01, 0.1, 1, 10, or 100 μM. The contents of each incubation were mixed, and then 100 μL was transferred into a fresh 96-well plate. […]
The samples were analyzed by using an Agilent 6470 triple quadrupole mass spectrometer equipped with an Acquity UPLC. […] The levodopa was detected by using the mass spectrometer in multiple reaction monitoring (MRM) mode, quantifying the transition 198.1 to 151.9 m/z in positive mode. […] Tolbutamide was monitored using MRM and quantifying the transition of 271.1 to 91.0 m/z in positive mode. […]
The amount of levodopa was quantified by normalizing the area to the area of tolbutamide internal standard within each sample. […]

The subject of series [5] is hepatocytes.
Procedure: In a 50 mL falcon tube, 40 mL of Gibco hepatocyte thawing medium was added. The remaining 10 mL of medium was used to gently transfer hepatocytes into a falcon tube using a wide-mouth pipette. The mixture was centrifuged briefly at low speed (100 g for 30 sec) to gather cells at the base of the tube. The supernatant was removed from the tube then bleached and the liquid discarded, leaving behind the cell pellet in the tube. About 4 mL of Gibco Williams E phenol-free medium was added to the tube to get a final count of 1 mil/mL, tilting gently by hand to scatter the cell pellet. […] Count was repeated twice and averaged to calculate the concentration in solution. Count of 1.2 mil/mL was found, and another 800 μL of incubation medium was added to the tube to bring the count to 1 mil/mL. Four wells of a 24 well plate were plated with 1 mL per well, and the plate was gently agitated to distribute a uniform number of cells per well. The plate was pre-incubated for about 10 min at 37° C. […] The plates were agitated to distribute compounds, then 200 μL aliquots were taken from each well and treated with an equal volume of ice-cold acetonitrile to quench catalysis and monitor progress. The quenching and sampling procedure was repeated at 4 h for 4-h samples. The quenched samples were centrifuged at 4000 g for 10 min at 4° C. and the supernatants were saved for analysis.

pIC50: −log10 of the molar value. A value given as a limit tells only on which side of the number the result lay.

Regarding `CC(Cc1ccc(O)c(O)c1)(NN)C(=O)O` (single isomer, unassigned; (-)) [carbidopa, (−)-L-α-hydrazino-α-methyl-β-(3,4-dihydroxybenzene) propanoic acid monohydrate], the “reduction of the amount of levodopa required to produce a given response” value in series [1] is listed as “about 75%”. Take `N[C@@](CF)(Cc1ccc(O)cc1)C(=O)O` [AFMT, alpha-fluoromethyltyrosine]: the “levels of levodopa at the earliest timepoint assessed” value in series [2] is on record as “elevated levels of levodopa at the earliest timepoint assessed”. Turning to `NC(Cc1ccc(O)cc1)(C(=O)O)C(F)F` (stereo not shown) [Compound K, 2-amino-3,3-difluoro-2-(4-hydroxybenzyl)propanoic acid], the “IC50 @ 60 min” value in series [3] was “Minor inhibition”. `NC(CF)(Cc1cccc(O)c1)C(=O)O` (stereo not shown) [Compound R, 2-amino-3-fluoro-2-(3-hydroxybenzyl)propanoic acid]: the “IC50 @ 60 min” value in series [3] was “Minor inhibition”.

One may read the pIC50 as the negative decadic logarithm of the IC50, by convention in mol/L. As for `COc1ccc(CCC(N)(CF)C(=O)O)cc1` (stereo not shown) [Compound U, 2-amino-2-(fluoromethyl)-4-(4-methoxyphenyl)butanoic acid], the pIC50 in series [3] is < 3.00.

Regarding `N[C@@](CF)(Cc1ccc(O)cc1)C(=O)O` [S, (S)-2-amino-3-fluoro-2-(4-hydroxybenzyl)propanoic acid], the pIC50 in series [4] is 5.70; in series [3], 5.40. Consider `N[C@](CF)(Cc1ccc(O)cc1)C(=O)O` [T, (R)-2-amino-3-fluoro-2-(4-hydroxybenzyl)propanoic acid], for which the pIC50 was 4.73 in series [4] and 4.08 in series [3]. As for `NCCc1cccc(O)c1` [meta-tyramine], in series [5], the “metabolites produced by hepatocytes” value is “metabolic derivatives of meta-tyramine (e.g., 3-hydroxyphenylacetic acid and meta-tyramine-O-sulfate) were produced”.
